Measured values: ChEMBL document CHEMBL5465560, “Selectivity Literature for EUbOPEN Chemogenomic Library” (2024)

Legend:
[1] = target: T1, Serine/threonine-protein kinase PLK4 (Homo sapiens) (UniProt O00444); settings: at 10 µM
T1 sequence (whole entry): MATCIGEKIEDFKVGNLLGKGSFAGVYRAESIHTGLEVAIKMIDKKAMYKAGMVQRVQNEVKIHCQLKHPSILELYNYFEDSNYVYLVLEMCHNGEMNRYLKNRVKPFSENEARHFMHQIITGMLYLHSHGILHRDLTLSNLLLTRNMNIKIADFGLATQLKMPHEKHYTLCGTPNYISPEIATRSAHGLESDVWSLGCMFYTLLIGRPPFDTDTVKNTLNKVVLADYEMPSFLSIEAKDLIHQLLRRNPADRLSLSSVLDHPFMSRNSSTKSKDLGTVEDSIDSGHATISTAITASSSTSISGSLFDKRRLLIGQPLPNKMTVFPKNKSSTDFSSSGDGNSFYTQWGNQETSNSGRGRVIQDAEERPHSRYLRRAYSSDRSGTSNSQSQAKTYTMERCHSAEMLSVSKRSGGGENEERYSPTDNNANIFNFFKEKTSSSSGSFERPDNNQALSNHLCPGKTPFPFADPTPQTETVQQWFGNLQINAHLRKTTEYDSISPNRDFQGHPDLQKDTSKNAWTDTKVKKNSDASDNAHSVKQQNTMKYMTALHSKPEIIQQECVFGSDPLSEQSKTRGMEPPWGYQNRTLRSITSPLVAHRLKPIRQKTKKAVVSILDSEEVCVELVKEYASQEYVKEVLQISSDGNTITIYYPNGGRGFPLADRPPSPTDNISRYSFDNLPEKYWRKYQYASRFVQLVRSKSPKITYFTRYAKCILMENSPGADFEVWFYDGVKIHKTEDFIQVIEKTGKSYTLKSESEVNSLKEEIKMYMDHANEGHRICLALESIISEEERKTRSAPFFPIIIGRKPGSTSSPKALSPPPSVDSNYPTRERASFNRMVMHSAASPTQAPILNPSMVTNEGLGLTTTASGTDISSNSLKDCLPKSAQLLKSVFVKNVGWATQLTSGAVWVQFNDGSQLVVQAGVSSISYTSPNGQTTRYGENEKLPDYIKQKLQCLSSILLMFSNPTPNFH

[2] = target: Ribosomal protein S6 kinase alpha-1 (Homo sapiens, UniProt Q15418); test: Selectivity interaction (ProQinase) EUB0000171b RPS6KA1
Chain of Ribosomal protein S6 kinase alpha-1 (Q15418 whole entry): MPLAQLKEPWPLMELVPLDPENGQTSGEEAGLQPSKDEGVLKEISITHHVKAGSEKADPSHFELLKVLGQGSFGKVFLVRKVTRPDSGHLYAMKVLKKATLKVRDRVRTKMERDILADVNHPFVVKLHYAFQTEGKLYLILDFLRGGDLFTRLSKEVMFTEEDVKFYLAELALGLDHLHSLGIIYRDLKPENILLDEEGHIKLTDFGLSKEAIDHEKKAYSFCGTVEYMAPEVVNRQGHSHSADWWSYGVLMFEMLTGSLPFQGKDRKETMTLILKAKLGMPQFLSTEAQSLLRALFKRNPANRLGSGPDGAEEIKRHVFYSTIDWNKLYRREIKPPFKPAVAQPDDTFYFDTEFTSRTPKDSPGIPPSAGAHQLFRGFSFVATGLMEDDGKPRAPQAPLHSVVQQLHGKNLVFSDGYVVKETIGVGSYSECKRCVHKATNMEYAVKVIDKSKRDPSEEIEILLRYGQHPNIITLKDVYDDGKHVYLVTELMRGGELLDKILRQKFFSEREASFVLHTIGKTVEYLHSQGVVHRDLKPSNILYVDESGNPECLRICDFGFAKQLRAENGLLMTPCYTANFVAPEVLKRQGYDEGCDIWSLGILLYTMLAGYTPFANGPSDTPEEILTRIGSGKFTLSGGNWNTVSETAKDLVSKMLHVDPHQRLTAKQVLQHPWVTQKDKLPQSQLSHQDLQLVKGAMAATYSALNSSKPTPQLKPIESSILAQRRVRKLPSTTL

Focal adhesion kinase 1 = Focal adhesion kinase 1 (Homo sapiens, UniProt Q05397); test: Selectivity interaction (KinomeScan (DiscoverX)) EUB0000666a PTK2; settings: at 10 µM
Chain of Focal adhesion kinase 1 (Q05397 2-1052 limits assumed): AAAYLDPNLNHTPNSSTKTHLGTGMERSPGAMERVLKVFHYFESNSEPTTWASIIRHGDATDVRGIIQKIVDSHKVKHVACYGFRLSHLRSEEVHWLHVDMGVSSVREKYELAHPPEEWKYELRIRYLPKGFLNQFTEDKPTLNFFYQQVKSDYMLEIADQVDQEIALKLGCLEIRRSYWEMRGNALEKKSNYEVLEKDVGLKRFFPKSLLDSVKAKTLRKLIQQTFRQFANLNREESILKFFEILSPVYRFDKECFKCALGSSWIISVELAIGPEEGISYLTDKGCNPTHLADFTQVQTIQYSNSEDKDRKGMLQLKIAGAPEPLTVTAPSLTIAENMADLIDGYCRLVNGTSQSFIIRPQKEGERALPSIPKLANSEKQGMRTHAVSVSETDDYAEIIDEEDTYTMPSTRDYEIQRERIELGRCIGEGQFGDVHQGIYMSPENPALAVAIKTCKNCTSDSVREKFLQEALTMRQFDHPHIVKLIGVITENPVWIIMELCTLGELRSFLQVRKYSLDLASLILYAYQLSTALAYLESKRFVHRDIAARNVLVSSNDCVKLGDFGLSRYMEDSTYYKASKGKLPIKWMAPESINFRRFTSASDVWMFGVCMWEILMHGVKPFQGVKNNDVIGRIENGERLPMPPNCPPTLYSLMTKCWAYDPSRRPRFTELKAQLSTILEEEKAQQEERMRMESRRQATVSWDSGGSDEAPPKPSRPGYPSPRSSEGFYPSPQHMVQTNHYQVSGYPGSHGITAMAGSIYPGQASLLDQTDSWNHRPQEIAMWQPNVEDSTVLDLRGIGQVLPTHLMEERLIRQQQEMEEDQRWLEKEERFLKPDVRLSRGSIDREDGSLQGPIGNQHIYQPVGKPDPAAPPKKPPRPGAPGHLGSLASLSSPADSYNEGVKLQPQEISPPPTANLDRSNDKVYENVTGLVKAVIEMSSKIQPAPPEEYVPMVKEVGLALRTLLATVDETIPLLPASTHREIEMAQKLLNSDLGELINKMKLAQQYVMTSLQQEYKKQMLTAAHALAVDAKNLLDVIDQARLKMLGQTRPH

[3] = target: T2, Interleukin-1 receptor-associated kinase 4 (Homo sapiens) (UniProt Q9NWZ3); settings: at 10 µM
T2 sequence (whole entry): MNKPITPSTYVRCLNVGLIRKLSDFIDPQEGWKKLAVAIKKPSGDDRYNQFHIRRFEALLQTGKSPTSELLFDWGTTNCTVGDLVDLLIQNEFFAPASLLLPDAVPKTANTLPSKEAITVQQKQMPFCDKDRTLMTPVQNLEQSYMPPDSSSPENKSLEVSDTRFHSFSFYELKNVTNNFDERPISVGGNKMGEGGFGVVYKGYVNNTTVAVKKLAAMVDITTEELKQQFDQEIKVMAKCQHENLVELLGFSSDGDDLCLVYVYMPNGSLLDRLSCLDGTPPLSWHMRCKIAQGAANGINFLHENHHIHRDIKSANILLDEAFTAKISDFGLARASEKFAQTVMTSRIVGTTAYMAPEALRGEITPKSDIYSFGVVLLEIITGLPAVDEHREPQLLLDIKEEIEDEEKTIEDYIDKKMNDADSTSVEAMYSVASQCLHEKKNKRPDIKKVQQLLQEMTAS

[4] = target: Ribosomal protein S6 kinase alpha-3 (Homo sapiens, UniProt P51812); test: Selectivity interaction (ActivX KiNativ screen (kinase selectivity in THP-1 cell lysates)) EUB0000639a RPS6KA3; format: subcellular; settings: lysate, at 0.04 µM
Chain of Ribosomal protein S6 kinase alpha-3 (P51812 whole entry): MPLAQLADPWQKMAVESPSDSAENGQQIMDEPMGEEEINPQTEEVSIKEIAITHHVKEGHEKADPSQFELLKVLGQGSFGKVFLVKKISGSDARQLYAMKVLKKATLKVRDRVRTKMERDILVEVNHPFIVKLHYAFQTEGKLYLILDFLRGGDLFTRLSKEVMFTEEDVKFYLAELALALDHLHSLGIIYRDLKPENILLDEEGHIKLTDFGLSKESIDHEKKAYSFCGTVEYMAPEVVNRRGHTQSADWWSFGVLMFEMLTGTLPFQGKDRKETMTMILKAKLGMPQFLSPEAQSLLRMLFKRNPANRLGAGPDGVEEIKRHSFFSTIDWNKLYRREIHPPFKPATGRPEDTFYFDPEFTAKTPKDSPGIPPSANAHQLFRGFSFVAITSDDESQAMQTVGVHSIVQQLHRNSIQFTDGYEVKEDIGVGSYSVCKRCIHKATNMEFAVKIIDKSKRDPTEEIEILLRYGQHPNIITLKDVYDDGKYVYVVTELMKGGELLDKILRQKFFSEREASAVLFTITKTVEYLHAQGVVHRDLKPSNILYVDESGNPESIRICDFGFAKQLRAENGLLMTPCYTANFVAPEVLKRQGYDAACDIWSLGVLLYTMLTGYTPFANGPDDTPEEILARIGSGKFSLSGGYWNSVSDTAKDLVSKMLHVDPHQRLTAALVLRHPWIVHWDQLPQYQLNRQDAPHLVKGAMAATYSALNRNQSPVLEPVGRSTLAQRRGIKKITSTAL

[5] = target: T3, Peripheral plasma membrane protein CASK (Homo sapiens) (UniProt O14936); test: Selectivity interaction (KinomeScan (DiscoverX)) EUB0001049a CASK; settings: at 1 µM
T3 sequence (whole entry): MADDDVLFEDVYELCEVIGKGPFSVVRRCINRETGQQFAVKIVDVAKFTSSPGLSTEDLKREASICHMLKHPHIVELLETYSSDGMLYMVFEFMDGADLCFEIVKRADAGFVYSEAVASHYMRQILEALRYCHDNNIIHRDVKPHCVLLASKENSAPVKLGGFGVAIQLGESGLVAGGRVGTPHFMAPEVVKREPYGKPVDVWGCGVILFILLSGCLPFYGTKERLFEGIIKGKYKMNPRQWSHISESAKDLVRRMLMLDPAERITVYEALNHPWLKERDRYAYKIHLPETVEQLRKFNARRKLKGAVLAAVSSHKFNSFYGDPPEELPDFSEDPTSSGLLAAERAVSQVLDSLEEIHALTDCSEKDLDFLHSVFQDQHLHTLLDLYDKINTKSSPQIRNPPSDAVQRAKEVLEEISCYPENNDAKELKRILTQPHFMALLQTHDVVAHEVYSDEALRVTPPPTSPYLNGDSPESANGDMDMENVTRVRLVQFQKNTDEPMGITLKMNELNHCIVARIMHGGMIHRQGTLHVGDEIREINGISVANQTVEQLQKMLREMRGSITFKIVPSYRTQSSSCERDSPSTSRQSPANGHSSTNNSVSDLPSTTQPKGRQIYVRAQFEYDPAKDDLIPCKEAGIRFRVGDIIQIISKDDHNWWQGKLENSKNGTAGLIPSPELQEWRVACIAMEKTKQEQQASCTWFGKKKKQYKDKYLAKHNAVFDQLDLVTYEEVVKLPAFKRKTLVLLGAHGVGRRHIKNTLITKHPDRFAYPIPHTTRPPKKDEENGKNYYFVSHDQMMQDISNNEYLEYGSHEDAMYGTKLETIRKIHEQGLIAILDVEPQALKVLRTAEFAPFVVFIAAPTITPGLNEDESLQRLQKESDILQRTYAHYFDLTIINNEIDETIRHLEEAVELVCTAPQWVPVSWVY

[6] = target: Tyrosine-protein kinase ABL1 (Homo sapiens, UniProt P00519); test: Selectivity interaction (Kinase screening (Nanosyn)) EUB0000604a ABL1
Chain of Tyrosine-protein kinase ABL1 (P00519 whole entry): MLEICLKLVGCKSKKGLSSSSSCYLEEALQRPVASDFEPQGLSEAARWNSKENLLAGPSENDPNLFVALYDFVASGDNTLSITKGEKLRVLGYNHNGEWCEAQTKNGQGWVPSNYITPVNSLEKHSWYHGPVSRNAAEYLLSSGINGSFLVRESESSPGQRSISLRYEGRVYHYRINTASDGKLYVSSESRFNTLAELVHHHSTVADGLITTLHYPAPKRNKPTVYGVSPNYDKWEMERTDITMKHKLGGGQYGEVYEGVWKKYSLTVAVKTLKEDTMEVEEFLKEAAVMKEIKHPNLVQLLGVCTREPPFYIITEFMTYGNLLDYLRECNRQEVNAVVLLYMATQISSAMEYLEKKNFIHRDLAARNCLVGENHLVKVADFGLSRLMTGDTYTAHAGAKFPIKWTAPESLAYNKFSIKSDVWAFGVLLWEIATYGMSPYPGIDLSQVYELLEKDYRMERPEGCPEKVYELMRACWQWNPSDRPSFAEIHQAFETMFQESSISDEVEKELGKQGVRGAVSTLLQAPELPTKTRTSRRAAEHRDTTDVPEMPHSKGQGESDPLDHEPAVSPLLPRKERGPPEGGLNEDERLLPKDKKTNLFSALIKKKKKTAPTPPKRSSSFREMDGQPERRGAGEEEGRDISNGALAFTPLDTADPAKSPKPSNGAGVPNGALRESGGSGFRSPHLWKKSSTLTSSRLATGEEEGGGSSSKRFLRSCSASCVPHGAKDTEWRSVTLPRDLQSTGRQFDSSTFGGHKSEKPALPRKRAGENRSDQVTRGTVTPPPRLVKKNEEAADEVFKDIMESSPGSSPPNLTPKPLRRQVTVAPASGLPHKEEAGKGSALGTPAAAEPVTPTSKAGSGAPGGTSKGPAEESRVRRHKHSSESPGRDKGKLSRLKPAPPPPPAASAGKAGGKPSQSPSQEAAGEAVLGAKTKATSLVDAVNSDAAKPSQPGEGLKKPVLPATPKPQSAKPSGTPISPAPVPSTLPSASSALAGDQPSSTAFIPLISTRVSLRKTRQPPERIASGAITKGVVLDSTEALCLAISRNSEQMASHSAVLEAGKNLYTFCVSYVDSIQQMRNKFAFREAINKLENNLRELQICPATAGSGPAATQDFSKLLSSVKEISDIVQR

[7] = target: Serine/threonine-protein kinase 38-like (Homo sapiens) (UniProt Q9Y2H1); test: Selectivity interaction (ActivX KiNativ screen (ex vivo kinase selectivity in human PBMCs)) EUB0001619a STK38L; format: cell-based; settings: PBMC, at 1 µM
Chain of Serine/threonine-protein kinase 38-like (Homo sapiens) (Q9Y2H1 2-464 limits assumed): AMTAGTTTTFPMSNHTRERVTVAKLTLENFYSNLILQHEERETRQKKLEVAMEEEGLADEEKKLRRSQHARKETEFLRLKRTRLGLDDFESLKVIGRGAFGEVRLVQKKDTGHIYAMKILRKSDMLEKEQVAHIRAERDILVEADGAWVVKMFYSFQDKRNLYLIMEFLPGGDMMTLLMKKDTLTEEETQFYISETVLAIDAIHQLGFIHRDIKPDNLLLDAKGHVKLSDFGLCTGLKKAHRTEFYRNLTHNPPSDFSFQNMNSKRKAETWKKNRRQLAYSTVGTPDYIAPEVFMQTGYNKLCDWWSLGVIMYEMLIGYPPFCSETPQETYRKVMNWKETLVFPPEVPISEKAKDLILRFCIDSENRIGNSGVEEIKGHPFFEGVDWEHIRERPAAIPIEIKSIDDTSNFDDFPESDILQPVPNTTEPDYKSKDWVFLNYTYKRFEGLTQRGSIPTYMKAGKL

Which % of control [1] does the source give for `CCN(CC)CCCCNc1ncc2cc(-c3cc(OC)cc(OC)c3)c(NC(=O)NC(C)(C)C)nc2n1` here?
The % of control was 100%.

With `C=CC(=O)Nc1cccc(C(=O)Nc2ccc(Nc3cc(-c4[nH]c(SC)nc4C)ccn3)cc2)c1` as the compound, how does the % of control ([2]; at 1 µM) read?
The % of control was 82%.

And the % of control ([2]; at 5 µM)?
The % of control was 64%.

`O=C(NOC[C@H](O)CO)c1ccc(F)c(F)c1Nc1ccc(I)cc1F` was tested. Which % of control (Focal adhesion kinase 1) did it give?
The % of control was 85%.

How did the % of control [3] turn out when `Cc1cc([C@@H](C)Nc2ccccc2C(=O)O)c2nc(N3CCOCC3)cc(=O)n2c1` [AZD-6482] was run?
Its % of control is 100%.

Which % of inhibition [4] does the source give for `CC[C@@H]1[C@H](F)C(=O)N[C@@H]1COc1nccc2cc(C(N)=O)c(OC)cc12` [ZIMLOVISERTIB] here?
The % of inhibition was 2.8%.

How did the % of control [5] turn out when `COc1cc(Nc2nc(C)cc(-c3cnn4nc(OC)ccc34)n2)cc(C(F)(F)F)c1` was run?
The % of control was 65%.

For `Cc1cnc(Nc2ccc(F)cc2Cl)nc1-c1c[nH]c(C(=O)N[C@H](CO)c2cccc(Cl)c2)c1`, which % of inhibition [6] is on record?
The % of inhibition was 3%.

Which % of inhibition [7] does the source give for `N#Cc1cccc(-c2c[nH]c3ncnc(N4CCOCC4)c23)c1` here?
The % of inhibition was 3%.
